Experimental data: patent US4547517A, “Microbicidal N-sulphenylated hydantoins” (Bayer Aktiengesellschaft, priority 1983, dated 1985)
Values after ≈ are worked out from the molar mass of the structure shown.

Tests used:
Fusarium nivale = Fusarium nivale test (rye)/seed treatment (Example 30); type: in vivo, Fusarium nivale (on rye); details: seed treatment, 500 mg/kg of seed, about 3 weeks after sowing, not dressed 12.8
Description: The active compounds are used as dry dressings. These are prepared by extending the particular active compound with a ground mineral to give a finely pulverulent mixture, which ensures uniform distribution on the seed surface. To apply the dressing, the infected seed is shaken with the dressing in a closed glass flask for 3 minutes. 2 batches of 100 grains of the rye are sown 1 cm deep in standard soil and are cultivated in a greenhouse at a temperature of about 10° C. and a relative atmospheric humidity of about 95%, in seedboxes which are exposed to light for 15 hours daily. About 3 weeks after sowing, the plants are evaluated for symptoms of snow mould.

[1] = test system: Erysiphe graminis f.sp. hordei; assay: Erysiphe test (barley)/protective (Example 29); type: in vivo, Erysiphe graminis f.sp. hordei (on barley); details: protective, active compound concentration in spray liquor 0.025 % by weight, 7 days after inoculation
Description: Solvent: 100 parts by weight of dimethylformamide Emulsifier: 0.25 part by weight of alkylaryl polyglycol ether To produce a suitable preparation of active compound, 1 part by weight of active compound is mixed with the stated amounts of solvent and emulsifier, and the concentrate is diluted with water to the desired concentration. To test for protective activity, young plants are sprayed with the preparation of active compound until dew-moist. After the spray coating has dried on, the plants are dusted with spores of Erysiphe graminis f.sp. hordei. The plants are placed in a greenhouse at a temperature of about 20° C. and a relative atmospheric humidity of about 80%, in order to promote the development of powdery mildew pustules. Evaluation is carried out 7 days after the inoculation.

Aureobasidium pullulans = assay: MIC against fungi in beer wort/peptone agar (Example 26); type: cell-based; details: 336 h, 28° C., 2 weeks
Description: (§1) Active compounds according to the invention are added in concentration of 0.1 mg/liter to 5,000 mg/liter to an agar prepared from beer wort and peptone. After storage at 28° C. and 60 to 70% relative atmospheric humidity for 2 weeks, the MIC is determined. The MIC is the lowest concentration of active compound at which no growth at all of the species of microbe used takes place; it is shown in the Table which follows.

Sclerophoma pityophila = assay: as above; type: cell-based; details: Sydowia polyspora, 336 h, 28° C., 2 weeks
Description: as §1

Coniophora cerebella = assay: as above; type: cell-based; details: 336 h, 28° C., 2 weeks
Description: as §1

Chaetomium globosum = assay: as above; type: cell-based; details: 336 h, 28° C., 2 weeks
Description: as §1

Penicillium glaucum = assay: as above; type: cell-based; details: 336 h, 28° C., 2 weeks
Description: as §1

Aspergillus niger = assay: as above; type: cell-based; details: 336 h, 28° C., 2 weeks
Description: as §1

Polyporus versicolor = assay: as above; type: cell-based; details: Trametes versicolor, 336 h, 28° C., 2 weeks
Description: as §1

Lentinus tigrinus = assay: as above; type: cell-based; details: 336 h, 28° C., 2 weeks
Description: as §1

Alternaria tenuis = assay: as above; type: cell-based; details: Alternaria alternata, 336 h, 28° C., 2 weeks
Description: as §1

Staphylococcus aureus = assay: Action against bacteria, MIC in bouillon agar (Example 27); type: cell-based; details: 336 h, 28° C., 2 weeks
Description: The active compounds listed in Table II are added in concentrations of 1 to 5000 ppm to an agar containing bouillon as the nutrient medium. The nutrient medium is then infected with Staphylococcus aureus and the infected medium is kept at 28° C. and 60 to 70% relative atmospheric humidity for 2 weeks. The MIC is the lowest concentration of active compound at which no growth at all of the species of microbe used takes place.

slime organisms = assay: Action against slime organisms, MIC in Allens nutrient solution (Example 28); type: cell-based; details: 504 h, room temperature, 3 weeks
Description: The compounds according to Examples 3, 5 and 10 are each used, dissolved in a little acetone, in concentrations of 0.1 to 100 mg/liter in Allens nutrient solution (Arch. Mikrobiol. 17, 34-53 (1952)), which contains, in 4 liters of sterile water, 0.2 g of ammonium chloride, 4.0 g of sodium nitrate, 1.0 g of dipotassium hydrogen phosphate, 0.2 g of calcium chloride, 2.05 g of magnesium sulphate, 0.02 g of iron chloride and 1% of caprolactam. Shortly beforehand, the nutrient solution is infected with slime organisms (about 10^6 germs/ml), which have been isolated from spinning water circulations used in the manufacture of polyamide. Nutrient solutions which contain the minimum inhibitory concentration (MIC) or higher concentrations of active compound are still completely clear after culture at room temperature for 3 weeks, that is to say the marked multiplication of the microbes and formation of slime noticeable after 3 to 4 days in nutrient solutions containing no active compound are absent.

Pyricularia oryzae = type: in vivo, Pyricularia oryzae (on rice); details: rice, protective; active compound concentration 0.025 %; 4 days after inoculation

| Compound | MIC (Aureobasidium pullulans) [µg/mL] | MIC (Sclerophoma pityophila) [µg/mL] | MIC (Coniophora cerebella) [µg/mL] | MIC (Chaetomium globosum) [µg/mL] | MIC (Penicillium glaucum) [µg/mL] | MIC (Aspergillus niger) [µg/mL] | MIC (Polyporus versicolor) [µg/mL] | MIC (Lentinus tigrinus) [µg/mL] | MIC (Alternaria tenuis) [µg/mL] | MIC (Staphylococcus aureus) [µg/mL] | MIC (slime organisms) [µg/mL] | further results |
| --- | --- | --- | --- | --- | --- | --- | --- | --- | --- | --- | --- | --- |
| CN1C(=O)CN(SC(F)(Cl)Cl)C1=O | – | – | – | – | – | – | – | – | – | – | – | Diseased plants in % of the total plants emerged (Fusarium nivale): 0.0 % of the total plants emerged |
| O=C1C2CC=CCC2C(=O)N1SC(Cl)(Cl)Cl (stereo not drawn) [Captan, reference compound] | – | – | – | – | – | – | – | – | – | – | – | Disease infestation in % of the untreated control [1]: 100 % of the untreated control; Diseased plants in % of the total plants emerged (Fusarium nivale): 5.4 % of the total plants emerged |
| CN1C(=O)N(SC(F)(Cl)Cl)C(C)(C)C1=O [Example 3] | 1 (≈ 3.63 µM) | 5 (≈ 18.2 µM) | 1 (≈ 3.63 µM) | 1.5 (≈ 5.45 µM) | 50 (≈ 182 µM) | 10 (≈ 36.3 µM) | 7.5 (≈ 27.3 µM) | 1 (≈ 3.63 µM) | 1.5 (≈ 5.45 µM) | 50 (≈ 182 µM) | 3 (≈ 10.9 µM) | – |
| CCCCN1C(=O)CN(SC(F)(Cl)Cl)C1=O [Example 5] | 2 (≈ 6.92 µM) | 5 (≈ 17.3 µM) | 0.75 (≈ 2.59 µM) | 3.5 (≈ 12.1 µM) | 100 (≈ 346 µM) | 50 (≈ 173 µM) | 15 (≈ 51.9 µM) | 0.75 (≈ 2.59 µM) | 2 (≈ 6.92 µM) | 100 (≈ 346 µM) | 5 (≈ 17.3 µM) | – |
| CC1(C)C(=O)N(C2CCCCC2)C(=O)N1SC(F)(Cl)Cl [Example 10] | 3.5 (≈ 10.2 µM) | 5 (≈ 14.6 µM) | 0.75 (≈ 2.18 µM) | 1.5 (≈ 4.37 µM) | 75 (≈ 218 µM) | 20 (≈ 58.3 µM) | 15 (≈ 43.7 µM) | 0.75 (≈ 2.18 µM) | 3.5 (≈ 10.2 µM) | 50 (≈ 146 µM) | 100 (≈ 291 µM) | – |
| O=C1CN(SC(F)(Cl)Cl)C(=O)N1C1CCCCC1 [drawing 16] | – | – | – | – | – | – | – | – | – | – | – | Disease infestation in % of the untreated control [1]: 0.0 % of the untreated control |
| O=C1C2CC=CCC2C(=O)N1SC(Cl)(Cl)Cl (stereo not drawn) [drawing 19, reference compound] | – | – | – | – | – | – | – | – | – | – | – | Disease infestation in % of the untreated control (Pyricularia oryzae): 50 % of the untreated control |
| O=C1CN(SC(F)(Cl)Cl)C(=O)N1C1CCCCC1 [drawing 20] | – | – | – | – | – | – | – | – | – | – | – | Disease infestation in % of the untreated control (Pyricularia oryzae): 13 % of the untreated control |
